Measurements from patent publication US20090298834A1, “4-(AMINOMETHYL)CYCLOHEXANAMINE DERIVATIVES AS CALCIUM CHANNEL BLOCKERS” (priority 2008, published 2009).

Legend:
[1] = biological target: T1, human α1H T-type channels (Homo sapiens, UniProt O95180); experiment: T-type calcium channel block, whole cell patch clamp (α1H); format: cell-based; details: HEK cells stably expressing human α1H; mainly non-inactivated protocol; values above 10 μM represented as 10 μM
T1 construct: expressed in transfected cells; host or cells: HEK 293
T1 sequence (O95180 whole entry): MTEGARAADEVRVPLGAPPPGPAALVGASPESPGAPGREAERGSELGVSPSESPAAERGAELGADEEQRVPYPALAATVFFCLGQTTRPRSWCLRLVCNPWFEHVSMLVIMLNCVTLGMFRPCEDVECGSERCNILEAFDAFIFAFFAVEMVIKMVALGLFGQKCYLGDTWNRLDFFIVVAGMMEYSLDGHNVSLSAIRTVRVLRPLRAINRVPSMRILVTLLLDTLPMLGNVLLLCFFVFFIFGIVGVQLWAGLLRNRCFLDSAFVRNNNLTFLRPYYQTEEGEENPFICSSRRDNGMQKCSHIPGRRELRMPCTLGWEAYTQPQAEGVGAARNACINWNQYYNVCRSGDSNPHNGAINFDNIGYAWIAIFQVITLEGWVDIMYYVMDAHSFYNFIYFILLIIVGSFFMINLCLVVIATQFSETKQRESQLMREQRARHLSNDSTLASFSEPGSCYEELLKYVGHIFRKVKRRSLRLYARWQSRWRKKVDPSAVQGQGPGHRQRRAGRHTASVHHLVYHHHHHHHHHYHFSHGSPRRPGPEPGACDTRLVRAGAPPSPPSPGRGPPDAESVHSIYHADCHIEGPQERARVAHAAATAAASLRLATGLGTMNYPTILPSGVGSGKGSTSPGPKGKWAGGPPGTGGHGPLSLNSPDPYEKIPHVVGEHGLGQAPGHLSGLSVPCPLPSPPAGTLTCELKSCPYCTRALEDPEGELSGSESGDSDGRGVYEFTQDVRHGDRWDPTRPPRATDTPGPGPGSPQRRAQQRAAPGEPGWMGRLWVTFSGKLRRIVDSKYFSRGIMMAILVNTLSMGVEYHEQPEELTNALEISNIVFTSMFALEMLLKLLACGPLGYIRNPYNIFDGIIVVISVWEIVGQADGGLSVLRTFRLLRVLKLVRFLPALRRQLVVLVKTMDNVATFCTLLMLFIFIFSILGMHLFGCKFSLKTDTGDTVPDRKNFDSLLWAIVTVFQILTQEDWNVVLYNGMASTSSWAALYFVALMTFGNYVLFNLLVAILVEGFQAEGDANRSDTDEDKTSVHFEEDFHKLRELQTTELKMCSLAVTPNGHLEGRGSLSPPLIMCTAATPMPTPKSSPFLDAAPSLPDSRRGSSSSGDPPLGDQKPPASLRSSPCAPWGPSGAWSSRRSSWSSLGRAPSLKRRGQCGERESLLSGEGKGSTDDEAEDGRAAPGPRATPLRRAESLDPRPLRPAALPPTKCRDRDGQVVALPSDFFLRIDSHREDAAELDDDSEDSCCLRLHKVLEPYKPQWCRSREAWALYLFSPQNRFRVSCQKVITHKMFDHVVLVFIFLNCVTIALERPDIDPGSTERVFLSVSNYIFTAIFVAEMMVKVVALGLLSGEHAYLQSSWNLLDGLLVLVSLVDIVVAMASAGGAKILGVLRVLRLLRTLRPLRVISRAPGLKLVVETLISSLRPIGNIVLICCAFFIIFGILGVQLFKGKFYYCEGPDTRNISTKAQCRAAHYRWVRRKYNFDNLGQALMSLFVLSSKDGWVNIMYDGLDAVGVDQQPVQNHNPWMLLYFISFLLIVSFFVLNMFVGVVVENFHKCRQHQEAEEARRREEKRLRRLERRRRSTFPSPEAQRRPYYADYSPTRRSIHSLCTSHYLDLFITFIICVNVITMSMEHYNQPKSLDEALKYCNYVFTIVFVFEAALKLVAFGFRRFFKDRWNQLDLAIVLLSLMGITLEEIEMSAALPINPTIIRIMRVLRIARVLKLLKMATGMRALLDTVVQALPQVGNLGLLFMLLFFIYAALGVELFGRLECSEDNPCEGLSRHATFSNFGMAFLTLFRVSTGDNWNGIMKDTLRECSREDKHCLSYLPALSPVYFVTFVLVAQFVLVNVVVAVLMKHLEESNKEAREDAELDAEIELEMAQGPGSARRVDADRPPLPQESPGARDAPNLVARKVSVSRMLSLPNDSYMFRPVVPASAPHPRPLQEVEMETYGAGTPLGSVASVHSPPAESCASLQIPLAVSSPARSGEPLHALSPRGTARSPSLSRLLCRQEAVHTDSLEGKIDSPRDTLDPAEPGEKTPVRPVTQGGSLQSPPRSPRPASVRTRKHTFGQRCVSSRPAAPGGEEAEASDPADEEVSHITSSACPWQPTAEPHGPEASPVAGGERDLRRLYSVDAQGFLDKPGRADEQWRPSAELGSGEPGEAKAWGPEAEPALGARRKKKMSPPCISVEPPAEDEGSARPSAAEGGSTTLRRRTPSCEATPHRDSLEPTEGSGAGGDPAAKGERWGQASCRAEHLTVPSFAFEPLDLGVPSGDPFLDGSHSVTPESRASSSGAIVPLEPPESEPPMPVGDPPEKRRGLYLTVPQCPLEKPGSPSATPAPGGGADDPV
Experimental: (§1) T-type calcium channel blocking activity was assayed in human embryonic kidney cells, HEK 293, stably transfected with the T-type calcium channel subunits. Briefly, cells were cultured in Dulbecco's modified eagle medium (DMEM) supplemented with 10% fetal bovine serum, 200 U/ml penicillin and 0.2 mg/ml streptomycin at 37° C. with 5% CO2. At 85% confluency cells were split with 0.25% trypsin/1 mM EDTA and plated at 10% confluency on glass coverslips. At 12 hours the medium was replaced and the cells stably transfected using a standard calcium phosphate protocol and the appropriate calcium channel cDNA's. Fresh DMEM was supplied and the cells transferred to 28° C./5% CO2. Cells were incubated for 1 to 2 days prior to whole cell recording.
(§2) Standard patch-clamp techniques were employed to identify blockers of T-type currents. Briefly, previously described HEK cell lines stably expressing human α1G, α1H and α1I T-type channels were used for all the recordings (passage #: 4-20, 37° C., 5% CO2). Whole cell patch clamp experiments were performed using an Axopatch 200B amplifier (Axon Instruments, Burlingame, Calif.) linked to a personal computer equipped with pCLAMP software. Data were analyzed using Clampfit (Axon Instruments) and SigmaPlot 4.0 (Jandel Scientific). To obtain T-type currents, plastic dishes containing semi-confluent cells were positioned on the stage of a ZEISS AXIOVERT S100 microscope after replacing the culture medium with external solution (see below). Whole-cell patches were obtained using pipettes (borosilicate glass with filament, O.D.: 1.5 mm, I.D.: 0.86 mm, 10 cm length), fabricated on a SUTTER P-97 puller with resistance values of ˜5 MΩ (see below for internal solution).
(§3) In the non-inactivating protocol, the holding potential is set at −110 mV and with a pre-pulse at −100 mV for 1 second prior to the test pulse at −40 mV for 50 ms. In the inactivation protocol, the pre-pulse is at approximately −85 mV for 1 second, which inactivates about 15% of the T-type channels.
(§4) Test compounds were dissolved in external solution, 0.1-0.01% DMSO. After 10 min rest, they were applied by gravity close to the cell using a WPI microfil tubing. The “non-inactivated” pre-pulse was used to examine the resting block of a compound. The “inactivated” protocol was employed to study voltage-dependent block. However, the initial data shown below were mainly obtained using the non-inactivated protocol only. . IC50 values are shown for various compounds of the invention in Table 4 for the drug of interest. Values are shown in μM and values above 10 μM are simply represented as 10 μM.

[2] = biological target: T2, human α1G T-type channels (Homo sapiens, UniProt O43497); experiment: T-type calcium channel block, whole cell patch clamp (α1G); format: cell-based; details: HEK cells stably expressing human α1G; mainly non-inactivated protocol; values above 10 μM represented as 10 μM, values below 0.30 μM represented as 0.30 μM
T2 construct: expressed in transfected cells; host or cells: HEK 293
T2 sequence (O43497 whole entry): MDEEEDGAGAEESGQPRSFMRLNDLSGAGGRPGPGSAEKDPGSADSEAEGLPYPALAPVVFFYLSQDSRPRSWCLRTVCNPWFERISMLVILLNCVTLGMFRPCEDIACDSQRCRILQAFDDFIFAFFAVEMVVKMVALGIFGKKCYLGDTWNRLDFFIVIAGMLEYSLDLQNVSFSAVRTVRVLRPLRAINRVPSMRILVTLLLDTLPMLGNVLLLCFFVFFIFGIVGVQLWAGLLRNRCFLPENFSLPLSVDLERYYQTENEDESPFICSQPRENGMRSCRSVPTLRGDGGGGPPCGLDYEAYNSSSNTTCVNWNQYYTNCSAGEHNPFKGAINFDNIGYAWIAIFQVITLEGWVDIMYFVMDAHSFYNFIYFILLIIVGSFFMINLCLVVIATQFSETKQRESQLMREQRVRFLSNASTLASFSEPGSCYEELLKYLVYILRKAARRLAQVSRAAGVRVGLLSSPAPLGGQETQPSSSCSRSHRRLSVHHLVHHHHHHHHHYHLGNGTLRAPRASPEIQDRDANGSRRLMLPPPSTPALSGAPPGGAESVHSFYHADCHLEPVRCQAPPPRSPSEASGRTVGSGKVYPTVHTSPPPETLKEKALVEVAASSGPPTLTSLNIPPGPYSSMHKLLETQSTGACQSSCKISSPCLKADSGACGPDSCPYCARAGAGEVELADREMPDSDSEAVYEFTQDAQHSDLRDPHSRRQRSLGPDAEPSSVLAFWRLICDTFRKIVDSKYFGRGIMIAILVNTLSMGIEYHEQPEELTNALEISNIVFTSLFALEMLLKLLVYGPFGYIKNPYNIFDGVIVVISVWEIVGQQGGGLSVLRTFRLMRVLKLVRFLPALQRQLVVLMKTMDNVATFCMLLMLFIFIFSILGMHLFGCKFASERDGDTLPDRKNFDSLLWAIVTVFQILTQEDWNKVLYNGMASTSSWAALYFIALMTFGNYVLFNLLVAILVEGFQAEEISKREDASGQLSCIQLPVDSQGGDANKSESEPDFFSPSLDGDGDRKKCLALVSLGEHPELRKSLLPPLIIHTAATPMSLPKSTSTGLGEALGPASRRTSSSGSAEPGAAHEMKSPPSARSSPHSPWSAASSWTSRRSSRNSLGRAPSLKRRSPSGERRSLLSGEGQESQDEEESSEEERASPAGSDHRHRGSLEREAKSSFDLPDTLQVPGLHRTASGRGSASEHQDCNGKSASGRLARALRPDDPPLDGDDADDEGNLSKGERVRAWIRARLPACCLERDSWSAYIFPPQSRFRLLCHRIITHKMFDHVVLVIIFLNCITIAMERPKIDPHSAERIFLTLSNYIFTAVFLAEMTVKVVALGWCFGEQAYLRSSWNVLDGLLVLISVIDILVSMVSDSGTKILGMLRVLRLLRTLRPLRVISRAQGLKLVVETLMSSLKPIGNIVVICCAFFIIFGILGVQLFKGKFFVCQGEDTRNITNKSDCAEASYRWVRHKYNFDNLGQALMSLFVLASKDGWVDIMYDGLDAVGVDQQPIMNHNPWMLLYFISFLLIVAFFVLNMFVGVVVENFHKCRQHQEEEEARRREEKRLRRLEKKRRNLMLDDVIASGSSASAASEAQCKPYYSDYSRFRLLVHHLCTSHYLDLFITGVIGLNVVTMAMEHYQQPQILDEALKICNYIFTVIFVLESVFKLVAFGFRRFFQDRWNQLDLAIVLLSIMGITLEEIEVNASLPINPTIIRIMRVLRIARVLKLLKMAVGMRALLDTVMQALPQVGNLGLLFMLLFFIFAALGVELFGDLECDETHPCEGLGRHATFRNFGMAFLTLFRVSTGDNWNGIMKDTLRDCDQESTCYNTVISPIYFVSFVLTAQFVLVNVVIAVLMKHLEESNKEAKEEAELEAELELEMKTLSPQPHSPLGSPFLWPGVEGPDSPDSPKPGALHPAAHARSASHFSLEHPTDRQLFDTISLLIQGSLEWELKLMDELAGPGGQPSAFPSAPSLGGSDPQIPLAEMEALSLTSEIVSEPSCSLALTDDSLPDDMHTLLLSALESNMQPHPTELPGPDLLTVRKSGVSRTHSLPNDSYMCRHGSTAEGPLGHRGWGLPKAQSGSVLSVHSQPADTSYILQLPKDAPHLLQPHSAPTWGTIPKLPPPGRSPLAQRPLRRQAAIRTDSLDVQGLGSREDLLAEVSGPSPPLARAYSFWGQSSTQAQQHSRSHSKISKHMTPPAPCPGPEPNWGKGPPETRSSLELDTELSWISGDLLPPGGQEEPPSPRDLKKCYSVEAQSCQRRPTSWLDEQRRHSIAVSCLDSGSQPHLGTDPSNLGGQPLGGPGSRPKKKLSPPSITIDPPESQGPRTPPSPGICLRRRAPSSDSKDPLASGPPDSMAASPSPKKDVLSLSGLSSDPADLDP
Experimental: as §1, §2, §3, §4

With `O=C(C[C@H]1CC[C@@H](NC(=O)[C@@H]2CCCN2)CC1)Nc1cc(C(F)(F)F)cc(C(F)(F)F)c1` [Compound 143, (S)-N-(cis-4-(2-(3,5-bis(trifluoromethyl)phenylamino)-2-oxoethyl)cyclohexyl)pyrrolidine-2-carboxamide] the IC50 [1] was 9940 nM and the IC50 [2] was 1900 nM.
`C#CC(CC)(CC)NC(=O)CN[C@H]1CC[C@@H](CNC(=O)c2cc(C(F)(F)F)cc(C(F)(F)F)c2)CC1` [Compound 47, N-((cis-4-(2-(3-ethylpent-1-yn-3-ylamino)-2-oxoethylamino)cyclohexyl)methyl)-3,5-bis(trifluoromethyl)benzamide] was tested, and the IC50 [1] was 10 nM and the IC50 [2] was ≤ 300 nM.
With `O=C(NC[C@H]1CC[C@@H](NC(=O)[C@@H]2C[C@@H](c3ccccc3)CN2)CC1)c1cc(C(F)(F)F)cc(C(F)(F)F)c1` [Compound 125, (2S,4S)-N-(cis-4-((3,5-bis(trifluoromethyl)benzamido)methyl)cyclohexyl)-4-phenylpyrrolidine-2-carboxamide] the IC50 [1] was 2430 nM and the IC50 [2] was 940 nM.
In the case of `COc1ccccc1CN[C@H]1CC[C@H](CNC(=O)c2cc(C(F)(F)F)cc(C(F)(F)F)c2)CC1` [Compound 29, N-((trans-4-(2-methoxybenzylamino)cyclohexyl)methyl)-3,5-bis(trifluoromethyl)benzamide], the IC50 [1] is reported as 800 nM and the IC50 [2] is reported as ≤ 300 nM.
`COc1ccc(CN[C@H]2CC[C@H](CNC(=O)c3cc(C(F)(F)F)cc(C(F)(F)F)c3)CC2)c(OC)c1` [Compound 35, N-((trans-4-(2,4-dimethoxybenzylamino)cyclohexyl)methyl)-3,5-bis(trifluoromethyl)benzamide] gave an IC50 [1] of 770 nM and an IC50 [2] of 390 nM.
Molecule `COc1cccnc1CN[C@H]1CC[C@@H](CNC(=O)c2cc(C(F)(F)F)cc(C(F)(F)F)c2)CC1` [Compound 11, N-((cis-4-((3-methoxypyridin-2-yl)methylamino)cyclohexyl)methyl)-3,5-bis(trifluoromethyl)benzamide] has an IC50 [1] of 2330 nM and an IC50 [2] of 1570 nM.
`O=C(NC[C@H]1CC[C@@H](NCC(=O)N2CCCC2)CC1)c1cc(C(F)(F)F)cc(C(F)(F)F)c1` [Compound 39, N-((cis-4-(2-oxo-2-(pyrrolidin-1-yl)ethylamino)cyclohexyl)methyl)-3,5-bis(trifluoromethyl)benzamide] was tested, and the IC50 [1] was 790 nM and the IC50 [2] was 1330 nM.
With `Cc1ccc(NC(=O)CN[C@H]2CC[C@@H](CNC(=O)c3cc(C(F)(F)F)cc(C(F)(F)F)c3)CC2)nc1` [Compound 73, N-((cis-4-(2-(5-methylpyridin-2-ylamino)-2-oxoethylamino)cyclohexyl)methyl)-3,5-bis(trifluoromethyl)benzamide] the IC50 [1] was 700 nM and the IC50 [2] was 310 nM.
In the case of `O=C(NC[C@H]1CC[C@@H](NCc2cccnc2F)CC1)c1cc(C(F)(F)F)cc(C(F)(F)F)c1` [Compound 8, N-((cis-4-((2-fluoropyridin-3-yl)methylamino)cyclohexyl)methyl)-3,5-bis(trifluoromethyl)benzamide], the IC50 [1] is reported as 4840 nM and the IC50 [2] is reported as 3350 nM.
In the case of `O=C(CNC[C@H]1CC[C@H](NC(=O)c2cc(C(F)(F)F)cc(C(F)(F)F)c2)CC1)NCC(F)(F)F` [Compound 82, N-(trans-4-((2-oxo-2-(2,2,2-trifluoroethylamino)ethylamino)methyl)cyclohexyl)-3,5-bis(trifluoromethyl)benzamide], the IC50 [1] is reported as 2090 nM and the IC50 [2] is reported as 2540 nM.
`CC(C)(C)OC(=O)NCCN[C@H]1CC[C@@H](CNC(=O)c2cc(C(F)(F)F)cc(C(F)(F)F)c2)CC1` [Compound 98, tert-butyl 2-(cis-4-((3,5-bis(trifluoromethyl)benzamido)methyl)cyclohexylamino)ethylcarbamate] showed an IC50 [1] of 780 nM and an IC50 [2] of 410 nM.
Molecule `COc1cc(F)cc(C(=O)NC[C@H]2CC[C@@H](NCC(=O)N(C)C3(C)CCC3)CC2)c1` [Compound 215, 3-fluoro-5-methoxy-N-(((1s,4s)-4-(2-(methyl(1-methylcyclobutyl)amino)-2-oxoethylamino)cyclohexyl)methyl)benzamide] has an IC50 [1] of 410 nM and an IC50 [2] of 1990 nM.
In the case of `CC(C)(C)NC(=O)CN[C@H]1CC[C@H](CNC(=O)c2cc(Cl)cc(Cl)c2)CC1` [Compound 191, N-(((1r,4r)-4-(2-(tert-butylamino)-2-oxoethylamino)cyclohexyl)methyl)-3,5-dichlorobenzamide], the IC50 [1] is reported as 180 nM and the IC50 [2] is reported as 530 nM.
For `O=C(CN[C@H]1CC[C@@H](CNC(=O)c2cc(C(F)(F)F)cc(C(F)(F)F)c2)CC1)NN1CCCCC1` [Compound 45, N-((cis-4-(2-oxo-2-(piperidin-1-ylamino)ethylamino)cyclohexyl)methyl)-3,5-bis(trifluoromethyl)benzamide], the IC50 [1] was 450 nM and the IC50 [2] was ≤ 300 nM.
In the case of `O=C(NC[C@H]1CC[C@H](NCc2cccc(F)c2O)CC1)c1cc(C(F)(F)F)cc(C(F)(F)F)c1` [Compound 31, N-((trans-4-(3-fluoro-2-hydroxybenzylamino)cyclohexyl)methyl)-3,5-bis(trifluoromethyl)benzamide], the IC50 [1] is reported as 2470 nM and the IC50 [2] is reported as ≤ 300 nM.
With `O=C(NC[C@H]1CC[C@@H](NC(=O)[C@@H]2CC[C@H](c3ccccc3)N2)CC1)c1cc(C(F)(F)F)cc(C(F)(F)F)c1` [Compound 127, (2S,5R)-N-(cis-4-((3,5-bis(trifluoromethyl)benzamido)methyl)cyclohexyl)-5-phenylpyrrolidine-2-carboxamide] the IC50 [1] was 4930 nM and the IC50 [2] was 1100 nM.
Work on `COc1cc(OC)cc(C(=O)NC[C@H]2CC[C@@H](NCC(=O)NC(C)(C)C)CC2)c1` [Compound 181, N-(((1s,4s)-4-(2-(tert-butylamino)-2-oxoethylamino)cyclohexyl)methyl)-3,5-dimethoxybenzamide] yielded an IC50 [1] of 330 nM and an IC50 [2] of 3650 nM.
In the case of `CC1(C)CCCN1C(=O)CN[C@H]1CC[C@@H](CNC(=O)c2cc(F)cc(Cl)c2)CC1` [Compound 195, 3-chloro-N-(((1s,4s)-4-(2-(2,2-dimethylpyrrolidin-1-yl)-2-oxoethylamino)cyclohexyl)methyl)-5-fluorobenzamide], the IC50 [1] is reported as 170 nM and the IC50 [2] is reported as 1100 nM.
For `CC(C)(C)NC(=O)CN[C@H]1CC[C@@H](CNC(=O)c2cc(C(F)(F)F)cc(C(F)(F)F)c2)CC1` [Compound 40, N-((cis-4-(2-(tert-butylamino)-2-oxoethylamino)cyclohexyl)methyl)-3,5-bis(trifluoromethyl)benzamide], the IC50 [1] was 190 nM and the IC50 [2] was ≤ 300 nM.
`COc1ccccc1CN[C@H]1CC[C@@H](CNC(=O)c2cc(C(F)(F)F)cc(C(F)(F)F)c2)CC1` [Compound 10, N-((cis-4-(2-methoxybenzylamino)cyclohexyl)methyl)-3,5-bis(trifluoromethyl)benzamide] was tested, and the IC50 [1] was 320 nM and the IC50 [2] was 470 nM.
For `CCN(CC)C(=O)CN[C@H]1CC[C@H](CNC(=O)c2cc(C(F)(F)F)cc(C(F)(F)F)c2)CC1` [Compound 56, N-((trans-4-(2-(diethylamino)-2-oxoethylamino)cyclohexyl)methyl)-3,5-bis(trifluoromethyl)benzamide], the IC50 [1] was 590 nM and the IC50 [2] was 440 nM.
Work on `COc1cccnc1CN[C@H]1CC[C@H](CNC(=O)c2cc(C(F)(F)F)cc(C(F)(F)F)c2)CC1` [Compound 30, N-((trans-4-((3-methoxypyridin-2-yl)methylamino)cyclohexyl)methyl)-3,5-bis(trifluoromethyl)benzamide] yielded an IC50 [1] of 5830 nM and an IC50 [2] of 1060 nM.
Work on `Cc1cc(F)cc(C(=O)NC[C@H]2CC[C@@H](NCC(=O)NC(C)(C)C)CC2)c1` [Compound 188, N-(((1s,4s)-4-(2-(tert-butylamino)-2-oxoethylamino)cyclohexyl)methyl)-3-fluoro-5-methylbenzamide] yielded an IC50 [1] of 1230 nM and an IC50 [2] of 4280 nM.
Work on `COC1CCC(N(C)C(=O)CN[C@H]2CC[C@H](CNC(=O)c3cc(C(F)(F)F)cc(C(F)(F)F)c3)CC2)CC1` (stereo partly drawn) [Compound 65, N-((trans-4-(2-((4-methoxycyclohexyl)(methyl)amino)-2-oxoethylamino)cyclohexyl)methyl)-3,5-bis(trifluoromethyl)benzamide] yielded an IC50 [1] of 7360 nM and an IC50 [2] of 8020 nM.
`O=C(NC[C@H]1CC[C@@H](NCc2c(F)cccc2Cl)CC1)c1cc(C(F)(F)F)cc(C(F)(F)F)c1` [Compound 13, N-((cis-4-(2-chloro-6-fluorobenzylamino)cyclohexyl)methyl)-3,5-bis(trifluoromethyl)benzamide] showed an IC50 [1] of 2830 nM and an IC50 [2] of 460 nM.
